Test results as given in PMC10648349, “Aromatic Diboronic Acids as Effective KPC/AmpC Inhibitors” (Molecules, 2023).
Values after ≈ are worked out from the molar mass of the structure shown. Read-outs that look alike come from different tables or passages of the source.

Columns and labels:
[1] = tested on: K. pneumoniae ATCC BAA 1705 KPC-2-positive; test: combination disc test CDT-KPC; format: cell-based; settings: Klebsiella pneumoniae, BAA1705; agent 0.3 mg per disc; read-out: Diameter of inhibition zone, MEM-10 disc with agent
[2] = tested on: E. coli 77 CMY-2-positive; test: combination disc test CDT-AmpC; format: cell-based; settings: Escherichia coli; agent 0.3 mg per disc; read-out: Diameter of inhibition zone, CAZ-30 disc with agent
C. albicans ATCC 90028 = test: antifungal activity (disc-diffusion, MIC, MFC); format: cell-based; settings: Candida albicans, ATCC90028; fluconazole by Etest
Protocol: (§1) Direct antimicrobial activity against Gram-negative and Gram-positive bacterial strains, as well as against yeast, was examined as previously described by the disc-diffusion test, the MIC determination assay, the MBC (for bacteria), and the MFC (for yeasts) determination tests. All the above-mentioned tests were performed according to EUCAST [71, 72] and CLSI [73, 74, 75, 76, 77] recommendations. The following reference agents were used: nitrofurantoin (for Gram-negative rods), linezolid (for Gram-positive bacteria), and fluconazole (in the case of fungi). The new aromatic diboronic acids were dissolved in DMSO (Sigma, St. Louis, MO, USA). In the disc-diffusion test, the concentration of new agents was 0.4 mg per disc.

C. tropicalis ATCC 750 = test: antifungal activity (disc-diffusion, MIC, MFC); format: cell-based; settings: Candida tropicalis, ATCC750; fluconazole by Etest
Protocol: as §1

S. cerevisiae ATCC 9763 = test: antifungal activity (disc-diffusion, MIC, MFC); format: cell-based; settings: Saccharomyces cerevisiae, ATCC9763; fluconazole by Etest
Protocol: as §1

C. tropicalis IBA 171 = test: antifungal activity (disc-diffusion, MIC, MFC); format: cell-based; settings: Candida tropicalis, IBA171; fluconazole by Etest
Protocol: as §1

[3] = tested on: C. guilliermondii IBA 155; test: antifungal activity (disc-diffusion, MIC, MFC); format: cell-based, Candida guilliermondii; settings: Meyerozyma guilliermondii, IBA155; fluconazole by Etest
Protocol: as §1

[4] = tested on: S. epidermidis ATCC 12228; test: direct antimicrobial activity (disc-diffusion, MIC, MBC); format: cell-based; settings: Staphylococcus epidermidis, ATCC12228
Protocol: as §1

E. faecium ATCC 6057 = test: as above; format: cell-based; settings: Enterococcus faecium, ATCC6057
Protocol: as §1

[5] = tested on: S. aureus ATCC 43300 MRSA; test: as above; format: cell-based; settings: Staphylococcus aureus; for zone of inhibition at 0.4 mg/disc: 0.4 mg per disc, 9 mm disc (linezolid 0.03 mg, 6 mm disc), - no zone, read-out: Diameter of inhibition zone
Protocol: as §1

E. faecalis ATCC 29212 = test: as above; format: cell-based; settings: Enterococcus faecalis, ATCC29212
Protocol: as §1

S. aureus ATCC 6538P = test: as above; format: cell-based; settings: Staphylococcus aureus, ATCC6538P; for zone of inhibition at 0.4 mg/disc: 0.4 mg per disc, 9 mm disc (linezolid 0.03 mg, 6 mm disc), - no zone, read-out: Diameter of inhibition zone
Protocol: as §1

[6] = tested on: C. parapsilosis ATCC 22019; test: antifungal activity (disc-diffusion, MIC, MFC); format: cell-based, Candida parapsilosis; settings: Lodderomyces parapsilosis, ATCC22019; fluconazole by Etest
Protocol: as §1

[7] = tested on: K. pneumoniae 81 KPC-3(+); test: MIC of tested agent alone, microdilution; format: cell-based; settings: Klebsiella pneumoniae; read-out: MIC of agent alone
Protocol: (§2) To examine the ability of tested agents to inhibit various carbapenemases and AmpC-enzymes, their synergy with antibiotics against β-lactamase-producing strains was assessed by checkerboard microdilution assay, with slight modification. Checkerboards were prepared in microtiter plates, with seven two-fold dilutions of β-lactams (1–64 mg/L) in the rows and three two-fold dilutions of tested agents and PBA (4–16 mg/L) in the columns. Tested agents’ concentrations were limited to the concentrations at which the newest commercially available BLIs (vaborbactam, relebactam, and avibactam) are used in susceptibility testing. Plates were inoculated and incubated as in the MIC microdilution assay. Parallel, MICs of tested agents and PBA alone were determined by the microdilution assay. Following the incubation, antibiotic MICs in the presence of each agent’s concentration were determined. Moreover, for the first well without growth found in each checkerboard row and column along the growth/non-growth interface, the fractional inhibitory concentration index (FICI) was calculated using the formula below:FICI = [(MIC of antibiotic in combination)/(MIC of antibiotic alone)] + [(MIC of the tested agent in combination)/(MIC of tested agent alone)].

[8] = tested on: P. aeruginosa MUW 700 AmpC(+); test: MIC of tested agent alone, microdilution; format: cell-based; settings: Pseudomonas aeruginosa; read-out: MIC of agent alone
Protocol: as §2

E. coli 76 KPC-2(+) = test: MIC of tested agent alone, microdilution; format: cell-based; settings: Escherichia coli; read-out: MIC of agent alone
Protocol: as §2

[9] = tested on: K. pneumoniae 83 KPC-3(+), CTX-M-3(+); test: MIC of tested agent alone, microdilution; format: cell-based; settings: Klebsiella pneumoniae; read-out: MIC of agent alone
Protocol: as §2

[10] = tested on: K. pneumoniae ATCC BAA-1705 KPC-2(+); test: MIC of tested agent alone, microdilution; format: cell-based; settings: Klebsiella pneumoniae, ATCCBAA1705; read-out: MIC of agent alone
Protocol: as §2

E. coli 77 CMY-2(+) = test: MIC of tested agent alone, microdilution; format: cell-based; settings: Escherichia coli; read-out: MIC of agent alone
Protocol: as §2

[11] = tested on: P. aeruginosa MUW 700 cAmpC-positive; test: combination disc test CDT-AmpC; format: cell-based; settings: Pseudomonas aeruginosa; agent 0.3 mg per disc; read-out: Diameter of inhibition zone, CAZ-30 disc with agent
[12] = tested on: K. pneumoniae ATCC 700603 ESBL-positive; test: combination disc test CDT-ESBL; format: cell-based; settings: Klebsiella pneumoniae, ATCC700603; agent 0.3 mg per disc; read-out: Diameter of inhibition zone, CAZ-30 disc with agent
[13] = MTT-based viability assay; format: cell-based; settings: human, 72 h, read-out: Viability of MRC-5 cells (% of viable cells ± SD)
Protocol: MRC-5 human fibroblasts (ECACC) were cultured in MEME, Minimum Essential Medium Eagle (Merck) supplemented with 10% fetal bovine serum (Merck), 2 mM l-glutamine, antibiotics (100 U/mL penicillin, 100 μg/mL streptomycin, Merck) and 1% non-essential amino acids (Merck). Cells were grown in 75 cm^2 cell culture flasks (Sarstedt) in a humidified atmosphere of CO2/air (5/95%) at 37 °C. MTT-based viability assay was conducted as described previously. Optical densities were measured at 570 nm using a BioTek microplate reader. All measurements were carried out in three replicates, and the results were expressed as a percent of viable cells versus control cells.

C. krusei ATCC 6258 = test: antifungal activity (disc-diffusion, MIC, MFC); format: cell-based, Candida krusei; settings: Pichia kudriavzevii, ATCC6258; fluconazole by Etest
Protocol: as §1

B. subtilis ATCC 6633 = test: direct antimicrobial activity (disc-diffusion); format: cell-based; settings: Bacillus subtilis, ATCC6633; 0.4 mg per disc, 9 mm disc (linezolid 0.03 mg, 6 mm disc); - no zone; read-out: Diameter of inhibition zone
Protocol: as §1

[14] = 0.4 mg per disc, 9 mm disc (linezolid 0.03 mg, 6 mm disc), - no zone, read-out: Diameter of inhibition zone

SMILES | zone of inhibition at 300 µg/disc [1] | zone of inhibition at 300 µg/disc [2] | MIC (C. albicans ATCC 90028) | MIC (C. tropicalis ATCC 750) | MIC (S. cerevisiae ATCC 9763) | MIC (C. tropicalis IBA 171) | MIC [3] | MIC [4] | MIC (E. faecium ATCC 6057) | MIC [5] | MIC (E. faecalis ATCC 29212) | MIC (S. aureus ATCC 6538P) | MIC [6] | MIC [7] | MIC [8] | viability at 72 h, 12.5 mg/L ([13]; MRC-5 human fibroblasts) | viability at 72 h, 25 mg/L ([13]; MRC-5 human fibroblasts) | viability at 72 h, 50 mg/L ([13]; MRC-5 human fibroblasts) | MIC (C. krusei ATCC 6258) | zone of inhibition at 0.4 mg/disc (B. subtilis ATCC 6633) | other results
OB(O)c1cc(B(O)O)cc(B(O)O)c1 [4a, benzene-1,3,5-triboronic acid] | 6 mm | 20 mm | > 400 mg/L | > 400 mg/L | > 400 mg/L | > 400 mg/L | > 400 mg/L | > 400 mg/L | 400 mg/L (≈ 1910 µM) | > 400 mg/L | > 400 mg/L | > 400 mg/L | > 400 mg/L | > 400 mg/L | > 400 mg/L | 102 ± 6.9% | 84.4 ± 6.4% | 87.9 ± 8.5% | > 400 mg/L | – | MIC (E. coli 76 KPC-2(+)): > 400 mg/L; MIC [9]: > 400 mg/L; MIC [10]: > 400 mg/L; MIC (E. coli 77 CMY-2(+)): > 400 mg/L; zone of inhibition at 300 µg/disc [11]: 16 mm; zone of inhibition at 300 µg/disc [12]: 14 mm
CC(=O)NC[C@H]1CN(c2ccc(N3CCOCC3)c(F)c2)C(=O)O1 [LIN, linezolid, reference compound] | – | – | – | – | – | – | – | 1 mg/L (≈ 2.96 µM) | 2 mg/L (≈ 5.93 µM) | 2 mg/L (≈ 5.93 µM) | 2 mg/L (≈ 5.93 µM) | 1 mg/L (≈ 2.96 µM) | – | – | – | – | – | – | – | 30 mm | MBC [4]: > 128 mg/L; zone of inhibition at 0.4 mg/disc [4, 14]: 26 mm; MBC (E. faecium ATCC 6057): > 128 mg/L; zone of inhibition at 0.4 mg/disc (E. faecium ATCC 6057; [14]): 14 mm; MBC [5]: > 128 mg/L; zone of inhibition at 0.4 mg/disc [5]: 25 mm; MBC (E. faecalis ATCC 29212): > 128 mg/L; zone of inhibition at 0.4 mg/disc (E. faecalis ATCC 29212; [14]): 15 mm; MBC (S. aureus ATCC 6538P): > 128 mg/L; zone of inhibition at 0.4 mg/disc (S. aureus ATCC 6538P): 25 mm
COc1c(B(O)O)cccc1B(O)O [2g] | 6 mm | 20 mm | > 400 mg/L | > 400 mg/L | > 400 mg/L | > 400 mg/L | > 400 mg/L | > 400 mg/L | 400 mg/L (≈ 2040 µM) | > 400 mg/L | > 400 mg/L | > 400 mg/L | > 400 mg/L | > 400 mg/L | > 400 mg/L | 111 ± 9.7% | 117 ± 3.7% | 103 ± 5.1% | > 400 mg/L | – | MIC (E. coli 76 KPC-2(+)): > 400 mg/L; MIC [9]: > 400 mg/L; MIC [10]: > 400 mg/L; MIC (E. coli 77 CMY-2(+)): > 400 mg/L; zone of inhibition at 300 µg/disc [11]: 19 mm; zone of inhibition at 300 µg/disc [12]: 13 mm
C[Si](C)(C)c1cc(B(O)O)c([Si](C)(C)C)cc1B(O)O [1k] | – | – | > 100 mg/L | > 100 mg/L | > 100 mg/L | > 100 mg/L | > 100 mg/L | 100 mg/L (≈ 322 µM) | 100 mg/L (≈ 322 µM) | 100 mg/L (≈ 322 µM) | > 100 mg/L | 100 mg/L (≈ 322 µM) | > 100 mg/L | – | – | – | – | – | > 100 mg/L | 11 mm | viability at 72 h, 12.5 mg/L [13]: 84.3 ± 0.9%; viability at 72 h, 25 mg/L [13]: 74.2 ± 3.5%; viability at 72 h, 50 mg/L [13]: 28.9 ± 1%
OB(O)c1cc(C(F)(F)F)c(B(O)O)cc1C(F)(F)F [1h] | – | – | > 400 mg/L | > 400 mg/L | > 400 mg/L | > 400 mg/L | > 400 mg/L | 200 mg/L (≈ 663 µM) | 400 mg/L (≈ 1330 µM) | 400 mg/L (≈ 1330 µM) | 400 mg/L (≈ 1330 µM) | 400 mg/L (≈ 1330 µM) | > 400 mg/L | – | – | 101 ± 4.3% | 104 ± 5% | 98.8 ± 3.2% | > 400 mg/L | 12 mm | zone of inhibition at 0.4 mg/disc [5]: 14 mm; zone of inhibition at 0.4 mg/disc (S. aureus ATCC 6538P): 13 mm
